Like-named read-outs stand apart in the source and are kept apart here. One block for each compound: values may come before it.
Columns and labels:
[1] = test system: porcine carotid arteries; experiment: In vitro elastase digestion of treated carotid arteries; settings: treated 20 minutes; 0.6% (w/v) Glut, 0.15% (w/v) PGG, alone or as cocktail; elastase 24 hrs, 37°C
Protocol: Tissue resistance to elastase degradation after treatment with various reagents is studied. Specifically, porcine carotid arteries were treated with saline (control, for 20 minutes), Glutaraldehyde (Glut) (for 20 minutes), PGG (for 20 minutes), or a combination of the two (Glut+PGG for 20 minutes, or Glut for 10 minutes followed by a separate incubation with PGG for 10 minutes). Concentrations of the reagents used were 0.6% (w/v) for Glut, 0.15% (w/v) for PGG and 9 g/L for physiological saline.
The treated tissue was then exposed to an in vitro elastase digestion assay to subject the treated tissue to digestion for 24 hrs. All experiments were conducted at 37° C. Because the values shown are percentage of digestion, the lower the value, the better the reagent used preformed in resisting elastase degradation. […] It should be noted that the digestion model used in this experiment is a very accelerated and aggressive digestion model.

[2] = test system: porcine aortic wall; experiment: Collagenase digestion of treated aortic wall; settings: type I collagenase 150 U/mL, 37°C, 24 hours
Protocol: Tissue resistance to collagenase degradation after treatment with various reagents is discussed. Specifically, samples of porcine aortic wall were either left untreated (fresh) or treated with Glut alone or Glut followed by tannic acid (TA). Glut treatment was performed with 0.6% (w/v) Glut for 1 day, and then 0.2% (w/v) Glut for 7 days at room temperature; Glut/TA treatment was performed with 0.6% (w/v) Glut for 1 day, and then 0.2% (w/v) Glut for 7 days at room temperature followed by 0.15% (w/v) TA for 4 days at 37° C. The treated samples were rinsed 3 times (1 hour each) in 100 mL water, and lyophilized to record dry weight. Samples with the amount of 15 to 25 mg dry weight were immersed in 1.2 mL of type I collagenase (150 U/mL) dissolved in 50 mM Tris buffer, 10 mM CaCl2, pH 7.4, and incubated at 37° C. with orbital shaking at 650 rpm for 24 hours. Following this exposure to collagenase, samples were centrifuged (10000 rpm, 10 minutes, 4° C.), individually rinsed three times in 1 mL water, lyophilized to obtain dry weight after collagenase, and the percent of digested tissue was calculated.

[3] = test system: abdominal aortic aneurysms in rats; format: in vivo, rat; settings: for external aortic diameter: PGG group
Protocol: Pelivascular application of calcium chloride (CaCl2) to the infrarenal abdominal aorta of rodents is an accepted rat aneurysm model. It involves exposure of the abdominal aorta through a midline incision, using gauze to apply CaCl2 solution directly onto the aorta for 15 minutes, followed by surgical closure. Using this aneurysm model, we evaluated the effect of a single PGG application on development of abdominal aortic aneurysms in rats. For this study, we exposed the abdominal aorta in adult rats (n=12), measured the aorta diameter using digital photography and applied a 0.03% PGG solution in saline for 15 minutes using soaked gauze. After rinsing in saline, we induced aortic injury with the 15-minute application of 0.5 mol/L CaCl2 solution. Control rats (n=12) were treated with saline for 15 minutes, rinsed and then treated with 0.5 mol/L CaCl2 solution for 15 minutes. After 28 days, we re-exposed the abdominal aorta under general anesthesia, measured the external diameter, then euthanized the rats and collected the aorta for analysis. […] Along with aortic dilatation, perivascular application of CaCl2 induced major changes in vascular elastin content and integrity as shown by analysis of desmosine, an amino acid which is specific to elastin, as well as histology, all shown in FIG. 12.

[4] = test system: aneurysmal aortas of rats; experiment: CaCl2 abdominal aortic aneurysm progression model, PGG applied to aneurysmal aorta at day 28; format: in vivo, rat; settings: PGG group, 11 of 11
Protocol: Using the same perivascular CaCl2 aortic injury model described earlier, the ability of PGG to halt the progression of growing aneurysms was evaluated. By applying PGG to healthy abdominal aorta immediately before the CaCl2-based aneurysm induction, the previously mentioned in vivo experiment essentially evaluated the effect of PGG on aneurysm formation. However, in order to create a more clinically relevant scenario, PGG was also applied to abdominal aortas of rats which were aneurysmal to investigate PGG's ability to hinder or halt aneurysm progression. In order to do this, rat aortas were treated with calcium chloride, the animals were closed, and AAA was allowed to develop for 28 days. At this time point, the aneurysmal aortas were exposed by a second surgery, and PGG was applied perivascularly using gauze. As a control, saline was applied by the same means to the remaining aneurysmal aortas. AAA progression was followed for another 28 days in both groups. A progressive diameter increase, reaching a mean 47.1±11% increase at 56 days, was measured in the control group (n=11) and the results were illustrated in FIG. 13.

[5] = test system: pure elastin obtained from porcine aorta; experiment: Elastase digestion of TA-treated pure aortic elastin (mass loss, histology); format: biochemical
Protocol: To investigate the potential of tannins as elastin stabilizing reagents, pure elastin obtained from porcine aorta was treated with tannic acid (TA) and the resistance of the treated porcine aorta to elastase was tested. Porcine aorta was chosen because large quantities of fresh tissue were easily obtainable. […] Purified elastin from porcine aorta was obtained using sodium hydroxide treatment followed by collagenase digestion. The smooth muscle cells, collagen and ground matrix are absent from purified aortic elastin. […] Elastase completely digested pure elastin strips, while addition of a 0.3% TA pretreatment step increased stability towards enzymatic digestion by almost 50%, as evaluated by mass loss shown in the graph at the left of FIG. 7 (p<0.05, n=6). Gravimetric data were further confirmed by histology and shown in FIG. 7A-D. Since histological analysis of elastase-digested elastin control was not possible at 48 hours due to complete (˜100%) degradation, we exposed pure elastin to elastase for only 1.5 hours, an interval which yields about 50% digestion and mass loss.

[6] = test system: pure elastin strips obtained from porcine aorta; experiment: Tannic acid binding to pure aortic elastin (Folin-Denis method); settings: incubation up to 24 hours
Protocol: In order to determine kinetics of tannin binding to elastin, pure elastin strips obtained from porcine aorta were incubated with tannic acid (TA) for up to 24 hours. The concentration of TA in solution was assayed with the Folin-Denis method. […] All data points between 0-6 hrs are statistically different with p<0.05. The bottom diagram of FIG. 6 is a representative schematic diagram of interactions between TA and elastin. The hydrophobic domains (2, black segments) are areas in the elastin molecule that are susceptible to elastase cleavage. TA and PGG molecules (4, round structures), with an affinity for these hydrophobic areas, likely bind to these regions within elastin molecules, and establish multiple hydrogen bonds (5, dashed lines) between their hydroxyl moieties and regions of neighboring elastin molecules, resulting in improved elastin stabilization. Desmosine crosslinks (3, X) within the hydrophilic regions (1) of elastin molecules.

[7] = test system: fresh aorta; experiment: Resistance of treated fresh aorta to elastase digestion; settings: 0.3% TA or 0.15% PGG (equimolar); accelerated digestion
Protocol: Resistance to elastase digestion was tested using fresh, untreated aorta and aorta treated with 0.3% TA or 0.15% PGG (equimolar concentrations). […] The differences between digestive values in TA and PGG samples were not significant (p>0.05). This is an accelerated digestion study, where high concentrations of enzyme were used. Such high enzyme activities are not expected to occur in vivo.

resistance of tissue to elastase degradation (percentage digestion) vs saline [1]: slightly improved
Compound: O=CCCCC=O [Glut, Glutaraldehyde]
percentage of sample digested by collagenase (mass loss) [2]: over 20%

time for which in vivo binding of PGG to aortic tissue is relatively stable ([3]; rat, in vivo): ≥ 28 days
PGG content of explanted aorta ([3]; rat, in vivo, 0 days): 1.8±0.6 μg PGG/mg dry tissue
PGG content of explanted aorta ([3]; rat, in vivo, 28 days): 1.2±0.4 μg PGG/mg dry tissue
Compound: O=C(OC[C@H]1O[C@@H](OC(=O)c2cc(O)c(O)c(O)c2)[C@H](OC(=O)c2cc(O)c(O)c(O)c2)[C@@H](OC(=O)c2cc(O)c(O)c(O)c2)[C@@H]1OC(=O)c1cc(O)c(O)c(O)c1)c1cc(O)c(O)c(O)c1 [PGG, penta-galloylglucose]
increase in aortic diameter after 28 days ([3]; 0.03% PGG in saline 15 minutes by soaked gauze before 0.5 mol/L CaCl2, day 28 vs day 0): 8±7%
loss of desmosine (elastin content) vs non-surgery control aorta ([3]; 28 days after injury): less than 15%
external aortic diameter ([3]; 28 days): 1.676±0.097 mm
external aortic diameter ([3]; day 0): 1.564±0.064 mm
aortas that maintained the same diameter or decreased at 56 days compared with 28 days [4]: 100%

Compound: O=C(OC[C@H]1O[C@@H](OC(=O)c2cc(O)c(O)c(OC(=O)c3cc(O)c(O)c(O)c3)c2)[C@H](OC(=O)c2cc(O)c(O)c(OC(=O)c3cc(O)c(O)c(O)c3)c2)[C@@H](OC(=O)c2cc(O)c(O)c(OC(=O)c3cc(O)c(O)c(O)c3)c2)[C@@H]1OC(=O)c1cc(O)c(O)c(OC(=O)c2cc(O)c(O)c(O)c2)c1)c1cc(O)c(O)c(OC(=O)c2cc(O)c(O)c(O)c2)c1 [TA, tannic acid]
increase in stability towards enzymatic digestion, evaluated by mass loss ([5]; 0.3% TA pretreatment, elastase, n=6): about 50%
histology of aortic elastin structure after elastase treatment ([5]; TA-stabilized elastin, elastase for up to 48 hours): remarkably preserved
TA binding kinetics normalized to dry weight of pure elastin strips [6]: rapid uptake
resistance of aorta to elastase (digestion values vs untreated fresh aorta) [7]: dramatically increased resistance

From US20090214654A1, “TREATMENT OF ANEURYSM WITH APPLICATION OF CONNECTIVE TISSUE STABILIZATION AGENT IN COMBINATION WITH A DELIVERY VEHICLE” (priority 2008, published 2009)
